Laboratory results published in US20180002288A1, “USE OF PICOLINAMIDES AS FUNGICIDES” (DOW AGROSCIENCES LLC, priority 2014, published 2018).

Key:
Format in all cases: in vivo
Cercospora beticola = assay: Leaf Spot of Sugar Beets fungicidal activity (CERCBE); settings: 24 h, sugar beet, high volume, 1 Day Protectant, read-out: CERCBE % Control rating
Procedure: All fungicides were evaluated using the aforementioned method for their activity vs. all target diseases, unless stated otherwise. Wheat leaf blotch and brown rust activity were also evaluated using track spray applications, in which case the fungicides were formulated as EC formulations, containing 0.1% Trycol 5941 in the spray solutions. Wheat plants (variety Yuma) were grown from seed in a greenhouse in 50% mineral soil/50% soil-less Metro mix until the first leaf was fully emerged, with 7-10 seedlings per pot. These plants were inoculated with an aqueous spore suspension of Zymoseptoria tritici either prior to or after fungicide treatments. After inoculation the plants were kept in 100% relative humidity (one day in a dark dew chamber followed by two to three days in a lighted dew chamber at 20° C.) to permit spores to germinate and infect the leaf. The plants were then transferred to a greenhouse set at 20° C. for disease to develop. When disease symptoms were fully expressed on the 1st leaves of untreated plants, infection levels were assessed on a scale of 0 to 100 percent disease severity. Percent disease control was calculated using the ratio of disease severity on treated plants relative to untreated plants. Sugar beet plants (variety HH88) were grown in soil-less Metro mix and trimmed regularly to maintain a uniform plant size prior to test. Plants were inoculated with a spore suspension 24 hr after fungicide treatments. Inoculated plants were kept in a dew chamber at 22° C. for 48 hr then incubated in a greenhouse set at 24° C. under a clear plastic hood with bottom ventilation until disease symptoms were fully expressed. Fungicide formulation, application and disease assessment on the sprayed leaves followed the procedures as described in the Example A.

Rhyncosporium secalis = assay: Barley Scald fungicidal activity (RHYNSE); settings: Hordeum vulgare, 24 h, high volume, 1 Day Protectant, read-out: RHYNSE % Control rating
Procedure: All fungicides were evaluated using the aforementioned method for their activity vs. all target diseases, unless stated otherwise. Wheat leaf blotch and brown rust activity were also evaluated using track spray applications, in which case the fungicides were formulated as EC formulations, containing 0.1% Trycol 5941 in the spray solutions. Wheat plants (variety Yuma) were grown from seed in a greenhouse in 50% mineral soil/50% soil-less Metro mix until the first leaf was fully emerged, with 7-10 seedlings per pot. These plants were inoculated with an aqueous spore suspension of Zymoseptoria tritici either prior to or after fungicide treatments. After inoculation the plants were kept in 100% relative humidity (one day in a dark dew chamber followed by two to three days in a lighted dew chamber at 20° C.) to permit spores to germinate and infect the leaf. The plants were then transferred to a greenhouse set at 20° C. for disease to develop. When disease symptoms were fully expressed on the 1st leaves of untreated plants, infection levels were assessed on a scale of 0 to 100 percent disease severity. Percent disease control was calculated using the ratio of disease severity on treated plants relative to untreated plants. Barley seedlings (variety Harrington) were propagated in soil-less Metro mix, with each pot having 8 to 12 plants, and used in the test when first leaf was fully emerged. Test plants were inoculated by an aqueous spore suspension of Rhyncosporium secalis 24 hr after fungicide treatments. After inoculation the plants were kept in a dew room at 22° C. with 100% relative humidity for 48 hr. The plants were then transferred to a greenhouse set at 20° C. for disease to develop. Fungicide formulation, application and disease assessment on the sprayed leaves followed the procedures as described in the Example A.

Venturia inaequalis = assay: Apple Scab fungicidal activity (VENTIN); settings: 24 h, high volume, 1 Day Protectant, read-out: VENTIN % Control rating
Procedure: All fungicides were evaluated using the aforementioned method for their activity vs. all target diseases, unless stated otherwise. Wheat leaf blotch and brown rust activity were also evaluated using track spray applications, in which case the fungicides were formulated as EC formulations, containing 0.1% Trycol 5941 in the spray solutions. Wheat plants (variety Yuma) were grown from seed in a greenhouse in 50% mineral soil/50% soil-less Metro mix until the first leaf was fully emerged, with 7-10 seedlings per pot. These plants were inoculated with an aqueous spore suspension of Zymoseptoria tritici either prior to or after fungicide treatments. After inoculation the plants were kept in 100% relative humidity (one day in a dark dew chamber followed by two to three days in a lighted dew chamber at 20° C.) to permit spores to germinate and infect the leaf. The plants were then transferred to a greenhouse set at 20° C. for disease to develop. When disease symptoms were fully expressed on the 1st leaves of untreated plants, infection levels were assessed on a scale of 0 to 100 percent disease severity. Percent disease control was calculated using the ratio of disease severity on treated plants relative to untreated plants. […] Seedlings with two expanding young leaves at the top (older leaves at bottom of the plants were trimmed) were used in the test. Plants were inoculated with a spore suspension of Venturia inaequalis 24 hr after fungicide treatment and kept in a 22° C. dew chamber with 100% relative humidity for 48 hr, and then moved to a greenhouse set at 20° C. for disease to develop. Fungicide formulation, application and disease assessment on the sprayed leaves followed the procedures as described in the Example A.

Alternaria solani = assay: Tomato Early Blight fungicidal activity (ALTESO); settings: 24 h, high volume, 1 Day Protectant, read-out: ALTESO % Control rating
Procedure: All fungicides were evaluated using the aforementioned method for their activity vs. all target diseases, unless stated otherwise. Wheat leaf blotch and brown rust activity were also evaluated using track spray applications, in which case the fungicides were formulated as EC formulations, containing 0.1% Trycol 5941 in the spray solutions. Wheat plants (variety Yuma) were grown from seed in a greenhouse in 50% mineral soil/50% soil-less Metro mix until the first leaf was fully emerged, with 7-10 seedlings per pot. These plants were inoculated with an aqueous spore suspension of Zymoseptoria tritici either prior to or after fungicide treatments. After inoculation the plants were kept in 100% relative humidity (one day in a dark dew chamber followed by two to three days in a lighted dew chamber at 20° C.) to permit spores to germinate and infect the leaf. The plants were then transferred to a greenhouse set at 20° C. for disease to develop. When disease symptoms were fully expressed on the 1st leaves of untreated plants, infection levels were assessed on a scale of 0 to 100 percent disease severity. Percent disease control was calculated using the ratio of disease severity on treated plants relative to untreated plants. Tomato plants (variety Outdoor Girl) were propagated in soil-less Metro mix, with each pot having one plant, and used when 12 to 14 days old. Test plants were inoculated with an aqueous spore suspension of Alternaria solani 24 hr after fungicide treatments. After inoculation the plants were kept in a dew room at 22° C. with 100% relative humidity for 48 hr to permit spores to germinate and infect the leaf. The plants were then transferred to a growth room at 22° C. for disease to develop. Fungicide formulation, application and disease assessment on the sprayed leaves followed the procedures as described in the Example A.

Row | Structure (SMILES) | pest or weed control at 100 ppm (Cercospora beticola) [%] | pest or weed control at 100 ppm (Rhyncosporium secalis) [%] | pest or weed control at 100 ppm (Venturia inaequalis) [%] | pest or weed control at 100 ppm (Alternaria solani) [%]
1 | COc1ccnc(C(=O)N[C@@H](C)C(=O)O[C@@H](C)[C@H](Oc2ccccc2)c2ccc(F)cc2Cl)c1OCOC(C)=O [Example 260] | > 80 | > 80 | < 80 | < 0
2 | COc1ccccc1[C@@H](Oc1ccccc1)[C@H](C)OC(=O)[C@H](C)NC(=O)c1nccc(OC)c1OCOC(C)=O [Example 255] | > 80 | < 80 | < 80 | < 0
3 | COc1ccnc(C(=O)N[C@@H](C)C(=O)O[C@@H](C)[C@H](Oc2ccccc2)c2ccc(F)cc2F)c1OCOC(C)=O [Example 250] | < 80 | < 80 | – | < 0
4 | COc1ccnc(C(=O)N[C@@H](C)C(=O)O[C@@H](C)[C@H](Oc2cccc(F)c2)c2ccccc2)c1OCOC(C)=O [Example 187] | > 80 | > 80 | – | < 80
5 | COc1ccnc(C(=O)N[C@@H](C)C(=O)O[C@@H](C)[C@H](Oc2cccc(Cl)c2)c2ccccc2)c1OCOC(C)=O [Example 202] | < 80 | < 0 | – | < 0
6 | COc1ccnc(C(=O)N[C@@H](C)C(=O)O[C@@H](C)C(Oc2ccc(F)cc2)c2ccccc2)c1OC(C)=O (some centres unmarked) [Example 236] | > 80 | > 80 | > 80 | < 80
7 | COc1ccnc(C(=O)N[C@@H](C)C(=O)O[C@@H](C)[C@H](Oc2ccc(F)cc2)c2ccccc2)c1OCOC(C)=O [Example 237] | > 80 | > 80 | < 80 | < 80
8 | COc1ccnc(C(=O)N[C@@H](C)C(=O)O[C@@H](C)[C@H](Oc2ccccc2)c2ccc3ccccc3c2)c1OCOC(C)=O [Example 263] | > 80 | > 80 | < 80 | < 0
9 | COc1ccnc(C(=O)N[C@@H](C)C(=O)O[C@@H](C)[C@H](Oc2ccccc2Cl)c2ccccc2)c1OC(C)=O [Example 205] | > 80 | < 80 | – | < 80
10 | COc1ccnc(C(=O)N[C@@H](C)C(=O)O[C@@H](C)[C@H](Oc2ccccc2)c2ccccc2)c1OCOC(C)=O [Example 183] | > 80 | > 80 | < 80 | < 80
11 | COc1ccnc(C(=O)N[C@@H](C)C(=O)O[C@@H](C)[C@H](Oc2ccc(F)cc2)c2ccccc2)c1OC(C)=O [Example 235] | > 80 | > 80 | < 80 | < 80
12 | COc1ccnc(C(=O)N[C@@H](C)C(=O)O[C@@H](C)[C@H](Oc2cc(F)cc(Cl)c2)c2ccccc2)c1OC(C)=O [Example 207] | > 80 | > 80 | > 80 | < 0
13 | COc1ccnc(C(=O)N[C@@H](C)C(=O)O[C@@H](C)[C@H](Oc2ccccc2)c2ccc(F)cc2C)c1OCOC(C)=O [Example 259] | > 80 | > 80 | < 80 | < 0
14 | COc1ccnc(C(=O)N[C@@H](C)C(=O)O[C@@H](C)C(Oc2ccc(F)cc2)c2ccc(F)cc2)c1OCOC(C)=O (some centres unmarked) [Example 238] | > 80 | > 80 | > 80 | > 80
15 | COc1ccnc(C(=O)N[C@@H](C)C(=O)O[C@@H](C)[C@H](Oc2ccccc2)c2ccc(C)cc2)c1OCOC(C)=O [Example 252] | > 80 | > 80 | < 80 | < 0
16 | COc1cc(F)ccc1[C@@H](Oc1ccccc1)[C@H](C)OC(=O)[C@H](C)NC(=O)c1nccc(OC)c1OCOC(C)=O [Example 256] | > 80 | > 80 | – | < 80
